Reference: patent publication US20140017242A1, “ANTI-BRADYKININ B2 RECEPTOR (BKB2R) MONOCLONAL ANTIBODY” (Diamedica, Inc., priority 2010, published 2014)

B1: H38/L39: humanized anti-BKB2R mAb, heavy chain H38 (SEQ ID NO:6), light chain L39 (SEQ ID NO:12) (antibody, V domains shown)
VH: EVQLLESGGGLVQPGGSLKLSCAVSGFTFSDYWMSWVRQAPGKGLEWVSEIRLKSDNYATHYADSVKGRFTISRDDSKNTLYLQMNSLRAEDTAVYYCTRDYYAMEYWGQGTLVTVSS
VL: DVVMTQTPLSLSVTPGQPASISCKSSQTIVHSNGKTYLEWYLQKPGQSPQLLIYKVSNRFSGVPDRFSGSGSGTDFTLKISRVEAEDVGVYYCFQASHVPYTFGQGTKLEIK
modifications: Humanized H38 Heavy Chain Variable Region VH; Humanized L39 Light Chain Region VL

Assays:
ZDF fa/fa rats [1] = assay: 21-day ZDF fa/fa study: urinary glucose (glycosuria); type: in vivo, rat; conditions: 10 mg/kg p.o. 1×/daily, day 14
ZDF fa/fa rats [2] = assay: 21-day ZDF fa/fa study: serum total cholesterol and triglyceride; type: in vivo, rat; conditions: 10 mg/kg p.o. 1×/daily, day 21
Description: (§1) Animals. Male ZDF fa/fa rats were obtained from CRL (Kingston, N.Y.). Upon arrival, rats were seven weeks of age. The rats were housed individually per cage in a room with a photo cycle of 12 hours of light and 12 hours of dark and an ambient temperature of 70-72° F. and fed on regular rodent diet and water ad libitum. At the age of eleven weeks, rats were divided into six groups (Table 5) of eight rats per group based on fasting blood glucose levels. A sub-group of four rats per group was maintained in parallel to the main groups and was dosed similarly for twenty-one days for a hyperinsulinemic-euglycemic clamp study. […]
(§2) An oral glucose tolerance test (OGTT) was performed on Day 0, 7, 14 and 21 for each group of the study. Plasma samples were collected at each time point during OGTT to also measure insulin levels. Body weight, food and water intake were measured twice a week. Blood pressure and heart rates were monitored on Day 0, 7, 14 and 21 using a non-invasive tail cuff method (with five readings per rat taken and then averaged). Fasting serum samples were collected on Day 0, 7, 14 and 21 before OGTT for determination of triglyceride and total cholesterol level. Urine samples were collected on Day 7 and 14 for the determination of glycosuria. Glycated (Glycosylated) hemoglobin (HbA1c) was measured at the end of the study. Assay kits for these studies were as presented in Table 6, and were used according to the suppliers' instructions.
(§3) The mean change in fasting blood glucose (mg/dL), serum cholesterol (mg/dL) and systolic blood pressure (mm Hg) from baseline (Day 0) to Day 21 was compared between the high-dose (5F12G1, 0.2 mg/kg) and negative control (MG2b-57, 0.2 mg/kg) groups using an analysis of covariance to adjust for baseline levels. The mean HbA1c percentage in high-dose (5F12G1, 0.2 mg/kg) rats was compared to the mean HbA1c percentage for negative control (MG2b-57, 0.2 mg/kg) rats using an unequal-variance, independent two-sample t-test. A significance level of a=0.05 was used for all tests, and all analyses were conducted using SAS statistical software (vs. 9.2, Cary, N.C., U.S.A.).

ZDF fa/fa rats [3] = assay: 21-day ZDF fa/fa study: fasting blood glucose; type: in vivo, rat; conditions: 10 mg/kg p.o. 1×/daily, day 21; baseline 116.5+/−25.8
Description: as §1, §2
Fasting blood glucose levels were measured on Day 0, 7, 14 and 21.
as §3

ZDF fa/fa rats [4] = assay: 21-day ZDF fa/fa study: oral glucose tolerance test (blood glucose, plasma insulin); type: in vivo, rat; conditions: 10 mg/kg p.o. 1×/daily, day 21
Description: as §1, §2
OGTTs were performed on Day 0, 7, 14 and Day 21. Rats were fasted overnight and fasted blood glucose levels were measured (t=0 min), and then each rat was given a single 1.5 ml dose of glucose solution (2 g/kg body weight of D-(+)-glucose (G7528, Sigma) solubilized in deionized water) administered by oral gavage. […] At each time point of an OGGT approximately 50-60 μl of blood were collected and processed for plasma to measure insulin levels.
Plasma Collection. On days 0, 7, 14 and 21 during an OGTT test, blood samples were collected from the rats at each time point (0, 15, 30, 60, 90 and 120 minutes) into tubes containing lithium heparin (BD Biosciences, USA) by tail nip and kept on ice. The samples were then centrifuged at 4° C. for plasma separation and the plasma supernatants were transferred into 0.5 ml Eppendorf™ tubes by pipette and stored at −80° C. for the analysis of insulin levels.

ZDF fa/fa rats [5] = assay: 21-day ZDF fa/fa study: glycated hemoglobin HbA1c; type: in vivo, rat; conditions: 10 mg/kg p.o. 1×/daily, day 21
Description: as §1, §2
The mean change in fasting blood glucose (mg/dL), serum cholesterol (mg/dL) and systolic blood pressure (mm Hg) from baseline ([…]) and negative control (MG2b-57, 0.2 mg/kg) groups using an analysis of covariance to adjust for baseline levels. […] A significance level of a=0.05 was used for all tests, and all analyses were conducted using SAS statistical software (vs. 9.2, Cary, N.C., U.S.A.).

[6] = biological target: T1, human BKB2R-derived epitope peptide, SE ID NO:73 (Homo sapiens, UniProt P30411); assay: ForteBio Octet binding kinetics to the BKB2R epitope peptide
T1 construct: purchased Biosyn, Lewisville, Tex
Description: Proteins corresponding to all combinations of humanized or chimeric (5F12G1 VH and VL on human IgG2 backbone) antibodies were tested for binding to the human BKB2R-derived epitope peptide, SE ID NO:73.
A ForteBio (Menlo Park, Calif., USA) Octet® platform was used to analyze the binding affinities and binding characteristics of the humanized monoclonal antibodies to the peptide epitope (SEQ ID NO:73) and compared to the original mouse monoclonal 5F12G1. This platform employed label-free technology for measuring biomolecular interactions by optical analysis of the interference pattern of white light reflected from two surfaces: a layer of immobilized protein on the biosensor tip, and an internal reference layer. Any change in the number of molecules bound to the biosensor tip caused a shift in the interference pattern that was measured in real-time. Binding specificity, and rates of association and dissociation were monitored.
For the Octet study, antibodies were analyzed by kinetic titration of the antibodies. Antibodies were prepared in kinetic buffer (0.001 M phosphate buffered saline (NaCl 0.0138 M; KCl-0.00027 M); pH 7.4, at 25° C., 0.1 mg/ml BSA, 0.002% Tween and 0.005% Sodium Azide) followed by 1:2 serial dilutions.
Sensor Prep: Streptavidin biosensors (FortéBio Inc, Menlo Park, Calif.) were coated by incubation in a solution containing a peptide ([…]-PEG-biotin) (Biosyn, Lewisville, Tex.) at 50 μg/ml (300 seconds/1000 rpm shaking). 96 well half-volume plates were used for testing. 90 μl of sample was plated per well. Sensors were allowed to equilibrate to baseline in kinetic buffer (60 seconds/1000 rpm). The sensors were then placed into the various antibody dilutions to allow binding (association) to the probe for 500 seconds/1000 rpm, and measurements were taken. The sensors were then moved into kinetic buffer without antibody for dissociation (500 seconds/1000 rpm), and measurements were taken. Octet system software calculated kinetic constants for on rate/off rate/affinity.
[…] […] Each concentration was tested twice. The HC and LC represented the mouse original 5F12G1 VH and VL sequences.

ZDF fa/fa rats [7] = assay: Oral glucose tolerance test in ZDF fa/fa rats, humanized mAbs; type: in vivo, rat; conditions: 0.2 mg/kg s.c.; order: H38/L39, H37/L38, L2/H2, H38/L38, H37/L37, H38/L38, H39/137 [sic], H39/L39, H37/L37, H39/L38, H37/L39, L1/H1
Excerpt: This example describes evaluation of mouse mAb 5F12G1 and its twelve humanized clones in Zucker Diabetic fatty (ZDF fa/fa) rats for effects on insulin sensitivity in animals. Zucker Diabetic Rats develop symptoms similar to type 2 diabetes and are genetically resistant to insulin. […] Therefore, the Zucker rat is a good model to test the ability of the monoclonal antibody to increase insulin sensitivity, especially in an OGTT.
Male ZDF fa/fa rats were obtained from Charles River (Kingston, ON). Upon arrival, rats were ten weeks of age. The rats were housed individually per cage in a room with a photo cycle of 12 hours of light and 12 hours of dark and an ambient temperature of 70-72° F. and fed on regular rodent diet and water ad libitum. After seven days of acclimatization, rats were grouped into fourteen groups of three rats per group (Table 10).
Oral Glucose Tolerance Test. An oral glucose tolerance test (OGTT) was performed on overnight fasted (16 hours) rats. Rats received subcutaneously administered humanized mAbs, mouse mAb 5F12G1 (positive control) and PBS (vehicle control) at a dose of 0.2 mg/kg body weight, thirty minutes prior to glucose administration. D-Glucose was prepared in distilled water and administered orally at 2 g/kg body weight. Blood glucose levels were measured before administration of humanized mAbs, 5F12G1 or vehicle (t=−30 minutes) and just before glucose loading (0 minute), and at timepoints of 30, 60, 90 and 120 minutes, using Accu-chek™ glucose meter.

Molecule	urine glucose level (ZDF fa/fa rats [1])	serum cholesterol (ZDF fa/fa rats [2]) [mg/dL]	fasting blood glucose level (ZDF fa/fa rats [3]) [mg/dL]	AUC of blood glucose during OGTT (ZDF fa/fa rats [4])	blood glucose level at 30 minutes of the OGTT (ZDF fa/fa rats [4]) [mg/dL]	blood glucose level at the start of the OGTT (ZDF fa/fa rats [4]) [mg/dL]	fasting insulin level (ZDF fa/fa rats [4]) [ng/mL]	insulin level at 15 minutes of the OGTT (ZDF fa/fa rats [4]) [ng/mL]	percent glycosylated hemoglobin A1c (HbA1c) (ZDF fa/fa rats [5])	kdis ([6]; Conc. 500 nM) [s⁻¹]	kon ([6]; Conc. 500 nM) [M⁻¹ s⁻¹]	binding compared with the original mouse monoclonal antibody ([6]; Octet, epitope peptide)	order of effect on the decrease in AUC of blood glucose (ZDF fa/fa rats [7])
N[C@@H](CC(=O)N1CCn2c(nnc2C(F)(F)F)C1)Cc1cc(F)c(F)cc1F [sitagliptin, reference compound]	elevated urine glucose	170 ± 14	247 ± 14	53765.75 ± 2281.45 mg/dL (min)	488	228	10 ± 3.5	15 ± 4	8.8+/−0.4%	–	–	–	–
B1	–	–	–	–	–	–	–	–	–	106	1.14e+09	stronger binding (lower KD)	higher
